Laboratory results: patent publication US7943577B2, “Alpha-fetoprotein peptides and uses thereof” (Albany Medical College, priority 2001, dated 2011)

What was measured:
[1] = system: head and neck 22B cancer cells; assay: PCNA and nuclear ERα immunoblot, 22B; assay type: cell-based, human; design: key to Total Nuclear Estrogen Receptor / PCNA accumulation: “+” indicates increase; “−” indicates decrease; “NC” indicates no change
Procedure: (§1) Cell lines. Glioma cells: C6 cells were cultured in F-12K medium with 18% FBS. F98 cells and GL261 cells were cultured in DMEM with 10% FBS. Head and neck cancer: 22B cells were cultured in DMEM with 10% FBS. Papillary thyroid cancers: BHP2-7 cells and BHP18-21 cells were cultured in DMEM with 10% FBS. Small cell lung cancer: HTB184 cells were cultured in RPMI medium with 10% FBS. Breast cancers: MCF-7 cells were cultured in DMEM (w/o phenol red) with 5% FBS and MDA-MB cells were cultured in DMEM with 10% FBS. Colon cancer: Colo 205 cells were cultured in RPMI medium with 10% FBS. Ovarian cancer: OVCAR-3 cells were culture in RPMI medium with 20% FBS supplemented with insulin. Prostate cancers: LNCaP cells were cultured in RPMI medium with 10% FBS. DU145 cells were cultured in MEM with 10% FBS and PC3 cells were cultured in F-12 medium with 10% FBS. Cervical cancer: HeLa cells were cultured in MEM with 10% FBS. Melanoma cells were cultured in DMEM with 10% FBS. These conditions were determined to maintain cellular production of proliferating cell nuclear antigen (PCNA) at high levels immediately prior to study of AFP-related peptide. All cell cultures were maintained in a 5% CO2/95% O2 incubator at 37 C. Cell fractionation. Fractionation in a microfuge and preparation of nucleoproteins was by our previously reported methods (1-3). Nuclear extracts were prepared by resuspension of the crude nuclei in high salt buffer (hypotonic buffer with 420 mM NaCl and 20% glycerol) at 4° C. with rocking for 1 hr. The supernatants were collected after subsequent centrifugation at 4° C. and 13,000 rpm for 10 min. Immunoblotting. The techniques are standard and have been described in a number of our publications (1-3). In brief, nucleoproteins were separated on discontinuous SDS-PAGE and then transferred by electroblotting to nitocellulose membranes (Millipore, Bedford, Mass.). […] Immunoreactive proteins are detected by chemiluminescence.

[2] = system: cancer cell lines; assay: PCNA and nuclear ERα immunoblot, summary over cancer cell lines; assay type: cell-based; details: E2 1×10^−9 M
Procedure: as §1

[3] = system: MDA-MB breast cancer cells; assay: PCNA and nuclear ERα immunoblot, MDA-MB; assay type: cell-based, human; design: key to Total Nuclear Estrogen Receptor / PCNA accumulation: “+” indicates increase; “−” indicates decrease; “NC” indicates no change
Procedure: as §1

[4] = system: BHP 18-21 papillary thyroid cancer cells; assay: PCNA and nuclear ERα immunoblot, BHP 18-21; assay type: cell-based; design: key: “+” indicates increase; “−” indicates decrease; “NC” indicates no change
Procedure: as §1, with “(1-3).” for “(1-3). Nuclear extracts were prepared by resuspension of the crude nuclei in high salt buffer (hypotonic buffer with 420 mM NaCl and 20% glycerol) at 4° C. with rocking for 1 hr. The supernatants were collected after subsequent centrifugation at 4° C. and 13,000 rpm for 10 min. Immunoblotting. The techniques are standard and have been described in a number of our publications (1-3). In brief, nucleoproteins were separated on discontinuous SDS-PAGE and then transferred by electroblotting to nitocellulose membranes (Millipore, Bedford, Mass.).”

[5] = system: LNCaP prostate carcinoma cells; assay: PCNA and nuclear ERα immunoblot, LNCaP; assay type: cell-based, human; design: key to Total Nuclear Estrogen Receptor / PCNA accumulation: “+” indicates increase; “−” indicates decrease; “NC” indicates no change
Procedure: as §1

[6] = system: F98 glioma cells; assay: PCNA and nuclear ERα immunoblot, F98; assay type: cell-based, murine; design: key to Total Nuclear Estrogen Receptor / PCNA accumulation: “+” indicates increase; “−” indicates decrease; “NC” indicates no change
Procedure: as §1

[7] = system: GL261 glioma cells; assay: PCNA and nuclear ERα immunoblot, GL261; assay type: cell-based, murine; design: key to Total Nuclear Estrogen Receptor / PCNA accumulation: “+” indicates increase; “−” indicates decrease; “NC” indicates no change
Procedure: as §1

[8] = system: PC3 prostate carcinoma cells; assay: PCNA and nuclear ERα immunoblot, PC3; assay type: cell-based, human; design: key to Total Nuclear Estrogen Receptor / PCNA accumulation: “+” indicates increase; “−” indicates decrease; “NC” indicates no change
Procedure: as §1

[9] = system: MAPK activation and ER phosphorylation in T47-D human breast cancer cells; assay: E2-induced MAPK activation and ER serine-118 phosphorylation in T47-D cells; assay type: cell-based; details: E2 10^−8M, 60 m
Procedure: Cells were treated with E2 for 60 m and lysed. The nuclear fraction was isolated, separated by gel electrophoresis of the nucleoproteins, and the proteins were transferred to membranes. The resolved nucleoproteins were immunoblotted with anti-phosphoMAPK (activated MAPK, pMAPK) and anti-phosphoER (pER.) The anti-pER is directed to ER's serine-118. The peptides of the invention, at, e.g., […], blocks MAPK E2 activation and E2-induced ER phosphorylation. However, there is no enhancement by E2 of either MAPK activation or ER phosphorylation when E2 is added with the peptides of the invention. It has been shown by Lobehofer et al. (Cell Growth Differ 11: 99-110 (2000)) that pharmacological inhibition of MAPK prevents E2-induced mitogenesis in human breast cancer cell line (MCF-7). Therefore, the peptides of the invention block ER phosphorylation, a step which is required for full transcriptional activity of ER, and as such, the peptides of the invention are useful anti-cancer, e.g., breast cancer, agents.
The inventors, while not wishing to be limited to a particular method or theory of how the present invention operates, have performed experiments using T-47D cells cultured with estradiol plus peptides of the invention, estradiol alone, peptide alone, or no additives (control). […] There was a corresponding reduction in the phosphorylation of serine 118 on the estrogen receptor. […]

[10] = system: HeLa cervical cancer cells; assay: PCNA and nuclear ERα immunoblot, HeLa; assay type: cell-based; design: key to Total Nuclear Estrogen Receptor / PCNA accumulation: “+” indicates increase; “−” indicates decrease; “NC” indicates no change
Procedure: as §1

In the case of `C[C@]12CC[C@@H]3c4ccc(O)cc4CC[C@H]3[C@@H]1CC[C@@H]2O` [E2, 17β-estradiol], the PCNA accumulation ([1]; 22B (Head Neck Cancer)) was “+”, the “Total Nuclear Estrogen Receptor” value ([1]; 22B (Head Neck Cancer)) was “+” and the “nuclear ERα” value ([1]; 22B, 10^−9M E2 or 10^−7 M AFP-peptide, 24 h) was “increased nuclear accumulation of ERα”. The “total nuclear accumulation of ERα” value ([2]; 24 hr, C6, F98, GL261, 22B, BHP 2-7, BHP 18-21, HTB 184, MCF-7 and HeLa cells) was “increased total nuclear accumulation of estrogen receptor-α (ERα)”, the “total nuclear ERα” value ([2]; MDA-MB, Colo205, OVCAR-3, LNCaP, and PC3 cells) was “no significant change in total nuclear ERα” and the “total nuclear ERα” value ([2]; melanoma cells) was “decreased the total nuclear ERα”. The PCNA accumulation ([3]; MDA-MB (Breast Cancer)) was “NC”, the “Total Nuclear Estrogen Receptor” value ([3]; MDA-MB (Breast Cancer)) was “NC” and the “nuclear ER” value ([3]; MDA-MB, 10^−9 M E2 or 10^−6 M peptide, 24 h) was “no significant change in ER”. For the same compound, the PCNA accumulation [4] was “+”, the “Total Nuclear Estrogen Receptor” value [4] was “+” and the PCNA accumulation ([5]; LNCaP (Prostate Cancer)) was “+”. For the same compound, the “Total Nuclear Estrogen Receptor” value ([5]; LNCaP (Prostate Cancer)) was “NC”, the “nuclear ERα” value ([5]; LNCaP, 10^−9 M E2 or 10^−6 M AFP-peptide, 24 h) was “did not increase nuclear accumulation of ERα” and the PCNA accumulation ([6]; F98 (Glioma)) was “+”. For the same compound, the “Total Nuclear Estrogen Receptor” value ([6]; F98 (Glioma)) was “+”, the “nuclear ERα” value ([6]; F98, 10^−9 M E2 or 10^−6 M AFP-peptide, 24 h) was “increased nuclear accumulation of ERα” and the PCNA accumulation ([7]; GL261 (Glioma)) was “−”. For the same compound, the “Total Nuclear Estrogen Receptor” value ([7]; GL261 (Glioma)) was “+”, the “nuclear ERα” value ([7]; GL261, 10^−9 M E2 or 10^−6 M AFP-peptide, 24 h) was “increased nuclear accumulation of ERα” and the PCNA accumulation ([8]; PC 3 (Prostate Cancer)) was “−”. The “Total Nuclear Estrogen Receptor” value ([8]; PC 3 (Prostate Cancer)) was “NC”, the “nuclear ERα” value ([8]; PC3, 10^−9 M E2 or 10^−6 M AFP-peptide, 24 h) was “did not increase nuclear accumulation of ERα” and the “MAPK activation (pMAPK) and ER serine phosphorylation (pER), nuclear fraction immunoblot” value [9] was “activates MAPK, e.g., in T47-D human breast cancer cells and serine-phosphorylates ER”. For the same compound, the PCNA accumulation ([10]; HeLa (Cervical Cancer)) was “+”, the “Total Nuclear Estrogen Receptor” value ([10]; HeLa (Cervical Cancer)) was “+” and the “nuclear ERα” value ([10]; HeLa, 10^−9M E2 or 10^−7 M AFP-peptide, 24 h) was “Neither E2 or AFP-peptide decreased nuclear accumulation of ERα”.
